Assay results as given in US20170260185A1 (priority 2014, published 2017).
Where a name gives a salt, the structure may show the parent alone. Read-outs that look alike come from different tables or passages of the source.

What was measured:
[1] = molecular target: T1, human dopamine transporter (DAT) (Homo sapiens, UniProt Q01959); experiment: Scintillation Proximity Assay (SPA) competition binding, [3H]WIN-35,428, hDAT-CHO membranes
T1 construct: expressed in transfected cells; host or cells: CHO (hDAT-CHO), membrane preparation

[2] = molecular target: T2, human serotonin transporter (SERT) (Homo sapiens, UniProt P31645); experiment: Scintillation Proximity Assay (SPA) competition binding, [3H]citalopram, hSERT-CHO membranes
T2 construct: expressed in transfected cells; host or cells: CHO (hSERT-CHO), membrane preparation

[3] = molecular target: T3, human norepinephrine transporter (NET) (Homo sapiens, UniProt P23975); experiment: Scintillation Proximity Assay (SPA) competition binding, [3H]nisoxetine, hNET-CHO membranes
T3 construct: expressed in transfected cells; host or cells: CHO (hNET-CHO), membrane preparation

[4] = molecular target: human ERG potassium channel (hERG) (Homo sapiens, UniProt Q12809); experiment: cell-based
Protocol: Measure of the Effect on hERG Channel by Tail Current Recording Using In Vitro Rapid ICE™
The potency of the compounds of the invention in inhibiting human ERG potassium channel (hERG) tail current is assessed in a recombinant HEK293 cell line stably transfected with hERG cDNA using Rapid ICE™ (Rapid Ion Channel Electrophysiology) assay. Rapid ICE™ is an automated patch-clamp assay utilizing the PatchXpress 7000A system (Molecular Devices Corporation) or the QPatch HTX system (Sophion Bioscience A/S).
Briefly cells are cultivated for 24 to 72 hours before recordings in minimum essential medium supplemented with 10% FBS, 1% non-essential amino acids, 1% sodium pyruvate, 2 mM L-glutamine. The day of the experiment cells are detached with TrypLE and prepared to be loaded on the instrument. For PatchXpress cells are finally resuspended in 150 μl of Extracellular Buffer whereas for QPatch cells are resuspended in 7 ml Serum-Free Media containing 25 mM Hepes and Soybean trypsin inhibitor and immediately placed in the cell storage tank of the machine. The composition of the Extracellular Buffer is (mM): NaCl 137; KCl 4; CaCl2 1.8; MgCl2 1.0; D-glucose 10; N 2 hydroxyethylpiperazine-N′-2-ethanesulfonic acid (HEPES) 10; pH 7.4 with 1 M NaOH. The composition of the pipette solution is (mM): KCl 130; MgCl2 1.0; Ethylene glycol-bis(R-aminoethyl ether)-N,N,N′,N′-tetraacetic acid (EGTA) 5; MgATP 5; HEPES 10; pH 7.2 with 1 M KOH. The voltage protocol includes the following steps: step from −80 mV to −50 mV for 200 ms, +20 mV for 4.8 s, step to −50 mV for 5 s then step to the holding potential of −80 mV. Compounds of the invention are dissolved in DMSO and diluted in Extracellular Buffer to achieve final test concentrations (0.1, 1 and 10 μM) in 0.1% DMSO. The voltage protocol is run and recorded continuously during the experiment. The vehicle, corresponding to 0.1% DMSO in Extracellular Buffer, is then applied for 3 min followed by the test substance in triplicate. The standard combined exposure time is 5 min. The average of tail current amplitude values recorded from 4 sequential voltage pulses is used to calculate for each cell the effect of the test substance by calculating the residual current (% control) compared with vehicle pre-treatment. Data are reported as % inhibition for each concentration tested and IC50 values are estimated using DataXpress or QPatch software. At least two cells are tested, more if results diverge.

[5] = read-out: pIC50 DAT (converted)
[6] = hERG tail current, HEK293 cells, read-out: pIC50 hERG (converted)

T2 sequence (P31645 whole entry): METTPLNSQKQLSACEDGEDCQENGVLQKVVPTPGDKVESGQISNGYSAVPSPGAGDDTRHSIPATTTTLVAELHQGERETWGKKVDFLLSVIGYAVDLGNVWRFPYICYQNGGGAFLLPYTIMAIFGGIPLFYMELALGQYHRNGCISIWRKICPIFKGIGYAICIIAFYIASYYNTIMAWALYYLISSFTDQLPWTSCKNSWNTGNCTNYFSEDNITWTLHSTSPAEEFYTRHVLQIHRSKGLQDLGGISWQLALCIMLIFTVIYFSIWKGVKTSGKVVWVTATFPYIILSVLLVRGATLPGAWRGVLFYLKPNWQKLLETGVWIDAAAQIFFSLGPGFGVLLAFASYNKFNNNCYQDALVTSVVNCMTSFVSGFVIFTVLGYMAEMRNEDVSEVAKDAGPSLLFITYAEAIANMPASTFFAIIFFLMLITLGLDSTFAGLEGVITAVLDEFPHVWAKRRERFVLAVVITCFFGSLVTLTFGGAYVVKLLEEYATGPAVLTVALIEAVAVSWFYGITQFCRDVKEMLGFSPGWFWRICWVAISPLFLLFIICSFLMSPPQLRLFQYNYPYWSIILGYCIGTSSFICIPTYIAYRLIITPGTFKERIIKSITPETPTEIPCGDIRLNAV
Sequence of human ERG potassium channel (hERG) (Q12809 whole entry): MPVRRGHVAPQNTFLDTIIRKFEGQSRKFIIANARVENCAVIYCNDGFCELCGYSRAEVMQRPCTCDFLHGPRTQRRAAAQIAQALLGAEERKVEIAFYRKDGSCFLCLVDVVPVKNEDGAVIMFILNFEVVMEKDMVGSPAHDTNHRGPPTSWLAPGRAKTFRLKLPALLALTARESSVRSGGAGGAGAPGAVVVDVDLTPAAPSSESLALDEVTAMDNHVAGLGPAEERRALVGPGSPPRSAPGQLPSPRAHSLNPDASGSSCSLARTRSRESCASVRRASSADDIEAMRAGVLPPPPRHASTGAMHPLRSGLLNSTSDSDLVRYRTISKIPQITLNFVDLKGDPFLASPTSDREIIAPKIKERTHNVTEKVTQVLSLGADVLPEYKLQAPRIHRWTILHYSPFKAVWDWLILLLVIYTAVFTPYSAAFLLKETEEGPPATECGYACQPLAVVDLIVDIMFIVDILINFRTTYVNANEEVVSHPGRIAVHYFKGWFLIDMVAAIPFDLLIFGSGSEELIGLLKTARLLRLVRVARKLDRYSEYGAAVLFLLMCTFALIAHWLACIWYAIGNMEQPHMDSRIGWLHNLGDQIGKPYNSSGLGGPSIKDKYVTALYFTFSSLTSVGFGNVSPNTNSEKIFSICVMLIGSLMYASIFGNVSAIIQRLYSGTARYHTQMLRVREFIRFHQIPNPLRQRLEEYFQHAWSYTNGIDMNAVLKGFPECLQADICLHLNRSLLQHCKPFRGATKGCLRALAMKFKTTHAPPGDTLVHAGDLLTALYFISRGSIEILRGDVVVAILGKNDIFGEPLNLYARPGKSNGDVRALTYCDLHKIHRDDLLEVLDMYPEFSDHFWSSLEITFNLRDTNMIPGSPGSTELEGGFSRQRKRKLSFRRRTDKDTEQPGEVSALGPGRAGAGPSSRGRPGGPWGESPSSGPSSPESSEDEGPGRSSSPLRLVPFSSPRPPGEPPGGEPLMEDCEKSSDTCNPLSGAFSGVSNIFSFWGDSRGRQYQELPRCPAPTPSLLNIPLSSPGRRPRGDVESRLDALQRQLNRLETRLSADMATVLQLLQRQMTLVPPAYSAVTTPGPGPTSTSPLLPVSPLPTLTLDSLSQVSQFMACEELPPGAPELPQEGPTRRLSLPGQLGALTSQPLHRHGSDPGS
T1 sequence (Q01959 whole entry): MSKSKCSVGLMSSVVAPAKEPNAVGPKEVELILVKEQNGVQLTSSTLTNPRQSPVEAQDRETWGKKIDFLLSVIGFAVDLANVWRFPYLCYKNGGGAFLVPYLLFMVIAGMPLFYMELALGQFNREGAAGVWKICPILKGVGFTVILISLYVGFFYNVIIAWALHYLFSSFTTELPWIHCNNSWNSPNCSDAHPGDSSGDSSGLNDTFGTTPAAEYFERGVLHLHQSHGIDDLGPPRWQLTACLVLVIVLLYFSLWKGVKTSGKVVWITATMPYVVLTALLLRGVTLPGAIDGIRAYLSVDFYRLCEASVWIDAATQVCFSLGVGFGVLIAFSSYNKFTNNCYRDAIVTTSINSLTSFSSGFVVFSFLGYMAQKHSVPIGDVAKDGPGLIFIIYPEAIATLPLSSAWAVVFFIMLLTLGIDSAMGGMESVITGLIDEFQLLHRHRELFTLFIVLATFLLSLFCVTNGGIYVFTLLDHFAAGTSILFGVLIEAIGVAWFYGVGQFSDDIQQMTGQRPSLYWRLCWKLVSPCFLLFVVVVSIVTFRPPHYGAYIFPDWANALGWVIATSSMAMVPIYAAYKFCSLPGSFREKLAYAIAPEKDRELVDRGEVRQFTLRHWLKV
T3 sequence (P23975 whole entry): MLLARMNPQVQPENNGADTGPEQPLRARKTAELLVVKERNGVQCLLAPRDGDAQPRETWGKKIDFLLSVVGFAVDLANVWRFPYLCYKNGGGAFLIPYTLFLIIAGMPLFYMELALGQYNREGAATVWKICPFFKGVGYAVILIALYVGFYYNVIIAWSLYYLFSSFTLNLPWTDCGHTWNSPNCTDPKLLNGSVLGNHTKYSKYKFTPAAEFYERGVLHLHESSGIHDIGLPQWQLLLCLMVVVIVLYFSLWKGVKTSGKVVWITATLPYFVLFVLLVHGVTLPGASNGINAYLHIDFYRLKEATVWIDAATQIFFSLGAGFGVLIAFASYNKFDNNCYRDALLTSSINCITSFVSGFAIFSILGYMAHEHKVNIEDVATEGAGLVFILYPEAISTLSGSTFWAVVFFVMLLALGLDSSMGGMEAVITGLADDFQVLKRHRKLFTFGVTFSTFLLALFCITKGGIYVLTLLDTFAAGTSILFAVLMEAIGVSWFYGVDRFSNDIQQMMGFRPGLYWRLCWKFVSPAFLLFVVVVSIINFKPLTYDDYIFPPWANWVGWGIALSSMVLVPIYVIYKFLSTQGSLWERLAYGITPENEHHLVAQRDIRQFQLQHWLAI

| Structure (SMILES) | IC50 [1, 5] | IC50 [2] | IC50 [3] | IC50 [4, 6] | IC50 [4] | IC50 ([1]; pIC50 DAT) |
| --- | --- | --- | --- | --- | --- | --- |
| COC1CCNCC12CCN(C(c1ccc(F)cc1)c1ccc(F)cc1)C2 (mixture of isomers) [Example 5, 2-[bis(4-fluorophenyl)methyl]-10-methoxy-2,7-diazaspiro[4.5]decane] | 145 nM | 7410 nM | 3240 nM |  |  |  |
| O=C1CCNC[C@@]12CCN(C(c1ccc(F)cc1)c1ccc(F)cc1)C2 (single isomer, unassigned) [Example 7, (5R or 5S)-2-[bis(4-fluorophenyl)methyl]-2,7-diazaspiro[4.5]decan-10-one] | 162 nM | 14100 nM | 2140 nM |  |  |  |
| O=C1CCNC[C@]12CCN(C(c1ccc(F)cc1)c1ccc(F)cc1)C2 (single isomer, unassigned) [Example 8, (5S or 5R)-2-[bis(4-fluorophenyl)methyl]-2,7-diazaspiro[4.5]decan-10-one] | 132 nM | 7410 nM | 1380 nM |  |  |  |
| O=C1CCNC[C@@]12CCN(C(c1ccc(F)cc1)c1ccc(F)cc1)C2 (single isomer, unassigned) [Example 9, (5R or 5S)-2-[bis(4-fluorophenyl)methyl]-2,7-diazaspiro[4.5]decan-10-one dihydrochloride salt] | 263 nM | 10700 nM | 2400 nM | 5010 nM |  |  |
| O=C1CCNC[C@]12CCN(C(c1ccc(F)cc1)c1ccc(F)cc1)C2 (single isomer, unassigned) [Example 10, (5S or 5R)-2-[bis(4-fluorophenyl)methyl]-2,7-diazaspiro[4.5]decan-10-one dihydrochloride salt] | 148 nM | 15500 nM | 6460 nM | 5010 nM |  |  |
| O[C@@H]1CCNC[C@]12CCN(C(c1ccc(F)cc1)c1ccc(F)cc1)C2 (single isomer, unassigned) [Example 11, 2-[bis(4-fluorophenyl)methyl]-2,7-diazaspiro[4.5]decan-10-ol] | 224 nM | 12900 nM | 3550 nM |  |  |  |
| O[C@@H]1CCNC[C@]12CCN(C(c1ccc(F)cc1)c1ccc(F)cc1)C2 (single isomer, unassigned) [Example 12, 2-[bis(4-fluorophenyl)methyl]-2,7-diazaspiro[4.5]decan-10-ol] | 302 nM | 17000 nM | 7940 nM |  |  |  |
| O[C@@H]1CCNC[C@@]12CCN(C(c1ccc(F)cc1)c1ccc(F)cc1)C2 (single isomer, unassigned) [Example 13, 2-[bis(4-fluorophenyl)methyl]-2,7-diazaspiro[4.5]decan-10-ol] | 174 nM | 19500 nM | 4270 nM |  |  |  |
| O[C@@H]1CCNC[C@@]12CCN(C(c1ccc(F)cc1)c1ccc(F)cc1)C2 (single isomer, unassigned) [Example 14, 2-[bis(4-fluorophenyl)methyl]-2,7-diazaspiro[4.5]decan-10-ol] | 200 nM | 22400 nM | 1740 nM |  |  |  |
| CO/N=C1\CCNC[C@]12CCN(C(c1ccc(F)cc1)c1ccc(F)cc1)C2 (single isomer, unassigned) [Example 15, (5S or 5R,10E)-2-[bis(4-fluorophenyl)methyl]-N-methoxy-2,7-diazaspiro[4.5]decan-10-imine] | 204 nM | 4790 nM | 2000 nM |  |  |  |
| ON=C1CCNCC12CCN(C(c1ccc(F)cc1)c1ccc(F)cc1)C2 (single isomer, unassigned) [Example 16, N-[(5S or 5R,10E)-2-[bis(4-fluorophenyl)methyl]-2,7-diazaspiro[4.5]decan-10-ylidene]hydroxylamine] |  | 6610 nM | 6310 nM |  | 2510 nM | 49 nM |
| Fc1ccc(C(c2ccc(F)cc2)N2CC[C@]3(CNCCC3(F)F)C2)cc1 (single isomer, unassigned) [Example 17, (5S or 5R)-2-[bis(4-fluorophenyl)methyl]-10,10-difluoro-2,7-diazaspiro[4.5]decane] |  | 13200 nM | 1070 nM |  | 3160 nM | 22.9 nM |
| FC1=CCNC[C@]12CCN(C(c1ccc(F)cc1)c1ccc(F)cc1)C2 (single isomer, unassigned) [Example 18, (5S or 5R)-2-[bis(4-fluorophenyl)methyl]-10-fluoro-2,7-diazaspiro[4.5]dec-9-ene] |  | 9330 nM | 1860 nM |  | 3160 nM | 30.2 nM |
| O=C1CCNCC12CCN(C(c1ccc(F)cc1)c1ccc(F)cc1)C2 (stereo not shown) [Example 1, 2-[bis(4-fluorophenyl)methyl]-2,7-diazaspiro[4.5]decan-10-one] | 129 nM | 22400 nM | 3800 nM |  | 2000 nM |  |
| CN1CCC(=O)C2(CCN(C(c3ccc(F)cc3)c3ccc(F)cc3)C2)C1 (stereo not shown) [Example 2, 2-[bis(4-fluorophenyl)methyl]-7-methyl-2,7-diazaspiro[4.5]decan-10-one] | 372 nM | 21900 nM | 22400 nM |  | 7940 nM |  |
| Fc1ccc(C(c2ccc(F)cc2)N2CCC3(CNCCC34OCCO4)C2)cc1 (stereo not shown) [Example 6, 8-[bis(4-fluorophenyl)methyl]-1,4-dioxa-8,12-diazadispiro[4.0.4^6.4^5]tetradecane] | 309 nM | 3390 nM | 4470 nM |  |  |  |
| O=C1CCNCC12CCN(C(c1ccc(Cl)cc1)c1ccc(Cl)cc1)C2 (stereo not shown) [Example 19, 2-[bis(4-chlorophenyl)methyl]-2,7-diazaspiro[4.5]decan-10-one] | 204 nM | 1780 nM | 3310 nM |  |  |  |
| Fc1ccc(C(c2ccc(F)cc2)N2CCC3(CCNCC34OCCO4)C2)cc1 (stereo not shown) [Example 20, 8-[bis(4-fluorophenyl)methyl]-1,4-dioxa-8,13-diazadispiro[4.0.4^6.4^5]tetradecane] |  | 2090 nM | 2000 nM |  |  | 28.8 nM |
| OC1CNCCC12CCN(C(c1ccc(F)cc1)c1ccc(F)cc1)C2 (stereo not shown) [Example 21, 2-[bis(4-fluorophenyl)methyl]-2,8-diazaspiro[4.5]decan-6-ol] | 186 nM | 6760 nM | 6030 nM |  |  |  |
| Fc1ccc(C(c2ccc(F)cc2)N2CCC3(CCCNC3)C2)cc1 (stereo not shown) [Example 22, 2-[bis(4-fluorophenyl)methyl]-2,7-diazaspiro[4.5]decane] | 110 nM | 6460 nM | 5750 nM |  |  |  |
| CN1CCCC2(CCN(C(c3ccc(F)cc3)c3ccc(F)cc3)C2)C1 (stereo not shown) [Example 23, 2-[bis(4-fluorophenyl)methyl]-7-methyl-2,7-diazaspiro[4.5]decane] | 115 nM | 4270 nM | 5010 nM |  |  |  |
| Fc1ccc(C(c2ccc(F)cc2)N2CCCC3(CCNC3)C2)cc1 (stereo not shown) [Example 24, 7-[bis(4-fluorophenyl)methyl]-2,7-diazaspiro[4.5]decane] | 537 nM | 11000 nM | 295 nM |  |  |  |
| Fc1ccc(C(c2ccc(F)cc2)N2CCCC3(CCNCC3)C2)cc1 [Example 25, 2-[bis(4-fluorophenyl)methyl]-2,9-diazaspiro[5.5]undecane] | 363 nM | 1580 nM | 2400 nM |  |  |  |
| Fc1ccc(C(c2ccc(F)cc2)N2CCC3(CCCNC3)CC2)cc1 [Example 26, 9-[bis(4-fluorophenyl)methyl]-2,9-diazaspiro[5.5]undecane] | 135 nM | 5250 nM | 2000 nM |  |  |  |
| Clc1ccc(C(c2ccc(Cl)cc2)N2CCC3(CCNCC3)C2)cc1 [Example 28, 2-[bis(4-chlorophenyl)methyl]-2,8-diazaspiro[4.5]decane] | 316 nM | 676 nM | 1230 nM |  |  |  |
| Clc1ccc(C(c2ccc(Cl)cc2)N2CCC3(CNCCO3)C2)cc1 (stereo not shown) [Example 30, 2-[bis(4-chlorophenyl)methyl]-6-oxa-2,9-diazaspiro[4.5]decane] | 151 nM | 912 nM | 2400 nM |  |  |  |
| Fc1ccc(C(c2ccc(F)cc2)N2CCC3(CC2)CNCCS3)cc1 [Example 32, 9-[bis(4-fluorophenyl)methyl]-1-thia-4,9-diazaspiro[5.5]undecane] |  | 2340 nM | 2450 nM |  |  | 58.9 nM |
